Source: ChEMBL document CHEMBL1145666, “Geriatrics photo quiz. Thoracic aortic aneurysm” (1983)
Values after ≈ are worked out from the molar mass of the structure shown.

How the values were obtained:
Format in all cases: functional
[1] = system: P388; assay: Antitumor activity against mouse P388 cells; conditions: read-out: ED50 (the source's name)
[2] = system: P388; assay: In vivo antitumor activity against mouse P388 cells at 40 ug/kg relative to control
[3] = system: P388; assay: In vivo antitumor activity against mouse P388 cells at 20 ug/kg relative to control

| Compound | EC50 [1] | T/C [2] | T/C [3] |
| --- | --- | --- | --- |
| C=C(C)[C@]12C[C@@H](C)[C@@]34OC5(CCCCCCC[C@H](C)[C@H]6[C@H](C)[C@H](OC(=O)c7ccccc7)[C@@](O)([C@H](O)[C@@]7(CO)O[C@H]7[C@H]3[C@H]1O5)[C@@H]64)O2 [PIMELEA FACTOR P2] | 0.79 ng/mL (≈ 1.24 nM) | 130 | 132 |
| C=C(C)[C@]12C[C@@H](C)[C@@]34O[C@](CCCCCCCCC)(O[C@@H]1[C@@H]3[C@@H]1O[C@]1(CO)[C@@H](O)[C@]1(O)C(=O)C(C)=C[C@H]14)O2 [SIMPLEXIN] | 5 ng/mL (≈ 9.39 nM) | – | – |
